Data published in patent publication US20110281901A1, “PHARMACEUTICAL COMPOSITIONS AND METHODS OF MAKING SAME” (GLAXO WELLCOME MANUFACTURING PTE LTD., priority 2010, published 2011).
≈ marks a conversion by molar mass, not a printed value.

Tests used:
[1] = physchem; conditions: phosphate buffer, 25 °C, pH 5, aqueous buffer
[2] = Solubility of pazopanib free base in phosphate buffer; conditions: 25° C., pH 3.5

- solubility [1]: ~6 ng/mL (≈ 0.0137 µM)
- approximate solubility [2]: ~20000 ng/mL
SMILES: Cc1ccc(Nc2nccc(N(C)c3ccc4c(C)n(C)nc4c3)n2)cc1S(N)(=O)=O [pazopanib free base, 5-[[4-[(2,3-dimethyl-2H-indazol-6-yl)methylamino]-2-pyrimidinyl]amino]-2-methylbenzenesulfonamide]
